Assay results reported in publication PMC7700175, “(E)-1-(Furan-2-yl)-(substituted phenyl)prop-2-en-1-one Derivatives as Tyrosinase Inhibitors and Melanogenesis Inhibition: An In Vitro and In Silico Study” (Molecules, 2020).
Where two headings read alike, the source gives them in different places.

What was measured:
[1] = target: T1, Mushroom tyrosinase (EC 1.14.18.1) (Agaricus bisporus, UniProt C7FF04); design: method as in PMID 30360412; settings: earlier results of the authors, cited from earlier work
T1 construct: purchased Sigma-Aldrich

[2] = target: T1, Mushroom tyrosinase (EC 1.14.18.1); experiment: Mushroom tyrosinase inhibition assay (L-tyrosine or L-DOPA as substrate); format: biochemical
Procedure: In order to evaluate the inhibitory effects of synthesized furan chalcone derivatives on the enzyme activity, tested compounds were subjected to a mushroom tyrosinase inhibition assay with monophenolase (L-tyrosine) or diphenolase (L-3,4-dihydroxyphenyl-alanine; L-DOPA) as the substrates.
Mushroom tyrosinase inhibition was determined following our previously reported methods. All experiments were done in triplicate. […] The measurement was completed in triplicate for each concentration and averaged. The IC50 values were determined by interpolation of the dose-inhibition % curves.

mushroom tyrosinase = target: T2, mushroom tyrosinase (Agaricus bisporus, UniProt C7FF04); settings: reported inhibitor type of mushroom tyrosinase; cited from earlier work
T2 construct: purchased Sigma-Aldrich

[3] = IC50 (μM) b, L-DOPA as substrate (diphenolase), mean ± SEM of triplicate
[4] = L-DOPA as substrate (diphenolase), mean ± SEM of triplicate, read-out: IC50 (μM) b
[5] = L-tyrosine as substrate (monophenolase), mean ± SEM of triplicate, read-out: IC50 (μM) a

T1 sequence (C7FF04 1-392): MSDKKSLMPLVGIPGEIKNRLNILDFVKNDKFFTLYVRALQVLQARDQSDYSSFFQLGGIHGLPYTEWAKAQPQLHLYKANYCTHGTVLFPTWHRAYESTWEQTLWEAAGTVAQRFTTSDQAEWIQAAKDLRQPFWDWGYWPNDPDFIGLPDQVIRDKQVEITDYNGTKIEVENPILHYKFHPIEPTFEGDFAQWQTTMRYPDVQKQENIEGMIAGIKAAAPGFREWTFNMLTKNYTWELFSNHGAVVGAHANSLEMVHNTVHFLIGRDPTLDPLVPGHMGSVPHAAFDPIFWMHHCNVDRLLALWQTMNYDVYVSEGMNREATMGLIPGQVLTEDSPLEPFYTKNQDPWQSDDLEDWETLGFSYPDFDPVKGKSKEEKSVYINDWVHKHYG
T2 sequence (C7FF04 1-392): as above

| SMILES | IC50 [2, 4] [µM] | IC50 [2, 5] [µM] | also measured |
| --- | --- | --- | --- |
| O=C(/C=C/c1cccs1)c1ccc(O)cc1O [(E)-2,4-dihydroxyphenyl-(thiophen-2-yl)prop-2-en-1-one] | – | – | IC50 ([1]; diphenolase): 930 nM; IC50 ([1]; monophenolase): 13 nM |
| O=C(O)/C=C/c1ccccc1 [Cinnamic acid, reference compound] | – | – | IC50 [2]: > 200 µM; IC50 [2, 3]: > 200 µM; inhibition type (mushroom tyrosinase): mixed-type |
| O=C(/C=C/c1ccc(O)cc1)c1ccco1 [Compound 1, (E)-1-(Furan-2-yl)-3-(4-hydroxyphenyl)prop-2-en-1-one] | > 200 | 28.9 ± 1.21 | – |
| O=C(/C=C/c1ccc(O)c(O)c1)c1ccco1 [Compound 2, (E)-3-(3,4-Dihydroxyphenyl)-1-(furan-2-yl)prop-2-en-1-one] | 24.9 ± 3.25 | 84.9 ± 3.79 | – |
| COc1cc(/C=C/C(=O)c2ccco2)ccc1O [Compound 3, (E)-1-(Furan-2-yl)-3-(4-hydroxy-3-methoxyphenyl)prop-2-en-1-one] | > 200 | > 200 | – |
| COc1ccc(/C=C/C(=O)c2ccco2)cc1O [Compound 4, (E)-1-(Furan-2-yl)-3-(3-hydroxy-4-methoxyphenyl)prop-2-en-1-one] | 37.4 ± 4.89 | 13.6 ± 3.74 | – |
| COc1cc(/C=C/C(=O)c2ccco2)cc(OC)c1O [Compound 5, (E)-1-(Furan-2-yl)-3-(4-hydroxy-3,5-dimethoxyphenyl)prop-2-en-1-one] | > 200 | > 200 | – |
| O=C(/C=C/c1ccc(O)c(Br)c1)c1ccco1 [Compound 6, (E)-3-(3-Bromo-4-hydroxyphenyl)-1-(furan-2-yl)prop-2-en-1-one] | > 200 | 51.2 ± 3.73 | – |
| O=C(/C=C/c1cc(Br)c(O)c(Br)c1)c1ccco1 [Compound 7, (E)-3-(3,5-Dibromo-4-hydroxyphenyl)-1-(furan-2-yl)prop-2-en-1-one] | 27.2 ± 0.38 | > 200 | – |
| O=C(O)c1ccccc1C(=O)O [Phthalic acid, reference compound] | – | – | IC50 [2]: > 200 µM; IC50 [2, 3]: > 200 µM; inhibition type (mushroom tyrosinase): mixed-type |
